The results in this text go back to ChEMBL document CHEMBL1157761, “Cytotoxic nor-chamigrane and chamigrane endoperoxides from a basidiomycetous fungus” (J Nat Prod, 2010).

Values after ≈ are worked out from the molar mass of the structure shown.

Assay [1] deals with BT-474. Nature of the assay: Cytotoxicity against human BT474 cells by MTT assay. In kind it is functional, cell-based.
The test system of assay [2] is SW-620. Nature of the assay: Cytotoxicity against human SW620 cells by MTT assay. In kind it is functional, cell-based.

As to `CC1(C)CCC(=O)[C@H]2OO[C@@H]3C[C@@]21CC[C@]3(O)CO` [MERULINS C], the values for the concentration for half-maximal inhibition (IC50) in assay [1] and in assay [2] were 1.57 µg/mL (≈ 5.81 µM) and 4.11 µg/mL (≈ 15.2 µM), respectively.
The matching figures for `CC1(C)CCC(=O)[C@@]2(C)OO[C@@H]3C[C@@]12CC[C@H]3O` [MERULIN A]: 4.98 µg/mL (≈ 19.6 µM) and 4.84 µg/mL (≈ 19 µM).
The matching figures for `CC1(C)CCC(=O)[C@H]2OO[C@@H]3C[C@]21CC[C@@]3(O)CO` [MERULINS B]: > 10 µg/mL and > 10 µg/mL.

In general, IC50 refers to the concentration needed to halve the response being measured. A lower IC50 goes with higher potency.
